In brackets after ≈: the same amount, converted by molar mass. Read-outs that look alike come from different tables or passages of the source.
Experiments:
[1] = test system: Klebsiella pneumoniae; assay: MIC, micro-dilution broth method (CLSI); assay type: cell-based; settings: Klebsiella pneumoniae, read-out: MIC
[2] = test system: Acinetobacter baumannii; assay: MIC, micro-dilution broth method (CLSI); assay type: cell-based
Description: (§1) Antimicrobial susceptibility assays.

[3] = test system: Bacillus cereus; assay: MIC, micro-dilution broth method (CLSI); assay type: cell-based; settings: ATCC11778; Bacillus cereus ATCC 11778
Description: as §1

[4] = test system: Bacillus subtilis; assay: MIC, micro-dilution broth method (CLSI); assay type: cell-based; settings: Bacillus subtilis PY79
Description: as §1

[5] = test system: Enterococcus faecium; assay: MIC, micro-dilution broth method (CLSI); assay type: cell-based; settings: ATCC19434; Enterococcus faecium ATCC 19434
Description: as §1

[6] = test system: Listeria monocytogenes; assay: MIC, micro-dilution broth method (CLSI); assay type: cell-based; settings: ATCC19115; Listeria monocytogenes ATCC 19115
Description: as §1

[7] = test system: Pseudomonas aeruginosa; assay: MIC, micro-dilution broth method (CLSI); assay type: cell-based
Description: as §1

[8] = test system: Staphylococcus aureus; assay: MIC, micro-dilution broth method (CLSI); assay type: cell-based; settings: ATCC29213; Staphylococcus aureus ATCC 29213
Description: as §1

[9] = test system: Staphylococcus epidermidis; assay: MIC, micro-dilution broth method (CLSI); assay type: cell-based; settings: Staphylococcus epidermidis NRS101
Description: as §1

[10] = test system: Streptococcus pneumoniae; assay: MIC, micro-dilution broth method (CLSI); assay type: cell-based; settings: Streptococcus pneumoniae Strain 1003
Description: as §1

[11] = test system: Streptococcus pyogenes; assay: MIC, micro-dilution broth method (CLSI); assay type: cell-based; settings: Streptococcus pyogenes Strain 1055
Description: as §1

[12] = test system: E. coli BW25113 LolC/LolE mutants; assay: MIC against lolamycin-resistant LolCDE mutants; assay type: cell-based, Escherichia coli
[13] = test system: E. coli AR0349; assay: Acute pneumonia bacterial burden model; assay type: in vivo, CD-1 mice; settings: lungs, 72 h post-infection
[14] = test system: E. cloacae AR0163; assay: Acute pneumonia bacterial burden model; assay type: in vivo, CD-1 mice; settings: colistin-resistant E. cloacae, 100 mg/kg IP (FIG. 7E)
[15] = test system: Bacteroides vulgatus; assay: MIC, gut commensal bacteria, micro-dilution broth
[16] = test system: Stenotrophomonas maltophilia; assay: MIC, gut commensal bacteria, micro-dilution broth
[17] = test system: Morganella morganii; assay: MIC, gut commensal bacteria, micro-dilution broth
[18] = test system: Bifidobacterium longum; assay: MIC, gut commensal bacteria, micro-dilution broth

Cc1cc(-c2c[nH]nc2-c2cccc(OCc3cccc(C#N)c3)c2)cc(C)n1 [Compound 12, 3-((3-(4-(2,6-dimethylpyridin-4-yl)-1H-pyrazol-3-yl)phenoxy)methyl)benzonitrile]
MIC ([1]; ATCC27736, K. pneumoniae ATCC 27736): 1 µg/mL (≈ 2.63 µM) | MIC ([1]; ATCCBAA1705, K. pneumoniae ATCC BAA-1705): 4 µg/mL (≈ 10.5 µM) | MIC ([1]; ATCCBAA2146, K. pneumoniae ATCC BAA-2146): 8 µg/mL (≈ 21 µM) | MIC ([1]; ATCCBAA2342, K. pneumoniae ATCC BAA-2342): 4 µg/mL (≈ 10.5 µM) | MIC ([1]; ATCCBAA2470, K. pneumoniae ATCC BAA-2470): 1 µg/mL (≈ 2.63 µM) | MIC ([1]; ATCCBAA2472, K. pneumoniae ATCC BAA-2472): 4 µg/mL (≈ 10.5 µM) | MIC ([1]; ATCCBAA2473, K. pneumoniae ATCC BAA-2473): 4 µg/mL (≈ 10.5 µM) | MIC ([1]; K. pneumoniae AR0034): 0.5 µg/mL (≈ 1.31 µM) | MIC ([1]; K. pneumoniae AR0039): 0.5 µg/mL (≈ 1.31 µM) | MIC ([1]; K. pneumoniae AR0041): 0.5 µg/mL (≈ 1.31 µM) | MIC ([1]; K. pneumoniae AR0042): 4 µg/mL (≈ 10.5 µM) | MIC ([1]; K. pneumoniae AR0043): 0.5 µg/mL (≈ 1.31 µM) | MIC ([1]; K. pneumoniae AR0044): 0.5 µg/mL (≈ 1.31 µM) | MIC ([1]; K. pneumoniae AR0046): 2 µg/mL (≈ 5.26 µM) | MIC ([1]; K. pneumoniae AR0047): 4 µg/mL (≈ 10.5 µM) | MIC ([1]; K. pneumoniae AR0049): 8 µg/mL (≈ 21 µM) | MIC ([1]; K. pneumoniae AR0066): 4 µg/mL (≈ 10.5 µM) | MIC ([1]; K. pneumoniae AR0068): 4 µg/mL (≈ 10.5 µM) | MIC ([1]; K. pneumoniae AR0075): 1 µg/mL (≈ 2.63 µM) | MIC ([1]; K. pneumoniae AR0076): 0.5 µg/mL (≈ 1.31 µM) | MIC ([1]; K. pneumoniae AR0079): 2 µg/mL (≈ 5.26 µM) | MIC ([1]; K. pneumoniae AR0080): 0.5 µg/mL (≈ 1.31 µM) | MIC ([1]; K. pneumoniae AR0087): 2 µg/mL (≈ 5.26 µM) | MIC ([1]; K. pneumoniae AR0098): 4 µg/mL (≈ 10.5 µM) | MIC ([1]; K. pneumoniae AR0106): 2 µg/mL (≈ 5.26 µM) | MIC ([1]; K. pneumoniae AR0107): 0.25 µg/mL (≈ 0.657 µM) | MIC ([1]; K. pneumoniae AR0109): 8 µg/mL (≈ 21 µM) | MIC ([1]; K. pneumoniae AR0112): 4 µg/mL (≈ 10.5 µM) | MIC ([1]; K. pneumoniae AR0113): 2 µg/mL (≈ 5.26 µM) | MIC ([1]; K. pneumoniae AR0115): 8 µg/mL (≈ 21 µM) | MIC ([1]; K. pneumoniae AR0117): 4 µg/mL (≈ 10.5 µM) | MIC ([1]; K. pneumoniae AR0120): 2 µg/mL (≈ 5.26 µM) | MIC ([1]; K. pneumoniae AR0125): 4 µg/mL (≈ 10.5 µM) | MIC ([1]; K. pneumoniae AR0126): 0.5 µg/mL (≈ 1.31 µM) | MIC ([1]; K. pneumoniae AR0129): 4 µg/mL (≈ 10.5 µM) | MIC ([1]; K. pneumoniae AR0135): 2 µg/mL (≈ 5.26 µM) | MIC ([1]; K. pneumoniae AR0138): 1 µg/mL (≈ 2.63 µM) | MIC ([1]; K. pneumoniae AR0139): 2 µg/mL (≈ 5.26 µM) | MIC ([1]; K. pneumoniae AR0140): 2 µg/mL (≈ 5.26 µM) | MIC ([1]; K. pneumoniae AR0141): 0.5 µg/mL (≈ 1.31 µM) | MIC ([1]; K. pneumoniae AR0142): 0.5 µg/mL (≈ 1.31 µM) | MIC ([1]; K. pneumoniae AR0143): 4 µg/mL (≈ 10.5 µM) | MIC ([1]; K. pneumoniae AR0145): 2 µg/mL (≈ 5.26 µM) | MIC ([1]; K. pneumoniae AR0146): 2 µg/mL (≈ 5.26 µM) | MIC ([1]; K. pneumoniae AR0148): 4 µg/mL (≈ 10.5 µM) | MIC ([1]; K. pneumoniae AR0152): 0.5 µg/mL (≈ 1.31 µM) | MIC ([1]; K. pneumoniae AR0153): 4 µg/mL (≈ 10.5 µM) | MIC ([1]; K. pneumoniae AR0158): 8 µg/mL (≈ 21 µM) | MIC ([1]; K. pneumoniae AR0160): 0.5 µg/mL (≈ 1.31 µM) | MIC ([1]; K. pneumoniae AR0347): 8 µg/mL (≈ 21 µM) | MIC ([1]; K. pneumoniae AR0542): 2 µg/mL (≈ 5.26 µM) | MIC ([1]; K. pneumoniae AR0548): 2 µg/mL (≈ 5.26 µM) | MIC ([1]; K. pneumoniae AR0550): 2 µg/mL (≈ 5.26 µM) | MIC ([1]; K. pneumoniae AR0552): 4 µg/mL (≈ 10.5 µM) | MIC ([1]; K. pneumoniae AR0553): 0.5 µg/mL (≈ 1.31 µM) | MIC ([1]; K. pneumoniae AR0554): 4 µg/mL (≈ 10.5 µM) | MIC ([1]; K. pneumoniae AR0555): 2 µg/mL (≈ 5.26 µM) | MIC ([1]; K. pneumoniae AR-0040): 1 µg/mL (≈ 2.63 µM) | MIC ([2]; ATCC19606, Acinetobacter baumannii ATCC 19606): > 128 µg/mL | MIC ([2]; ATCC19606, Acinetobacter baumannii ATCC 19606 Δ3): 32 µg/mL (≈ 84.1 µM) | MIC [3]: > 128 µg/mL | MIC [4]: > 128 µg/mL | MIC [5]: > 128 µg/mL | MIC [6]: > 128 µg/mL | MIC ([7]; Pseudomonas aeruginosa PAO1, read-out: MIC): > 128 µg/mL | MIC ([7]; Pseudomonas aeruginosa PAO1 Δ6): > 128 µg/mL | MIC [8]: > 128 µg/mL | MIC [9]: > 128 µg/mL | MIC [10]: > 128 µg/mL | MIC [11]: > 128 µg/mL | MIC ([12]; E. coli BW25113 mutant D264N (LolE), selected at 32-fold MIC): >128 µg/mL | MIC ([12]; E. coli BW25113 mutant E195K (LolC), selected at 32-fold MIC): >128 µg/mL | MIC ([12]; E. coli BW25113 mutant E255D (LolC), selected at 32-fold MIC): >128 µg/mL | MIC ([12]; E. coli BW25113 mutant F367S (LolE), selected at 32-fold MIC): >128 µg/mL | MIC ([12]; E. coli BW25113 mutant I206N (LolE), selected at 32-fold MIC): >128 µg/mL | MIC ([12]; E. coli BW25113 mutant M262I (LolC), selected at 32-fold MIC): >128 µg/mL | MIC ([12]; E. coli BW25113 mutant N265K (LolC), selected at 32-fold MIC): >128 µg/mL | MIC ([12]; E. coli BW25113 mutant Q258P (LolC), selected at 32-fold MIC): >128 µg/mL | MIC ([12]; Escherichia coli, BW25113): > 128 µg/mL | reduction in bacterial burden ([13]; 100 mg/kg IP twice a day for 3 days): 2 log | reduction in bacterial burden vs vehicle ([13]; 200 mg/kg PO twice a day for 3 days): 3 log | efficacy, bacterial burden [14]: showed the efficacy | MIC ([15]; Bacteroides vulgatus KLE 2303, BHI-ych, listed as Lolamycin): >128 µg/mL | MIC ([15]; Phocaeicola vulgatus): > 128 µg/mL | MIC ([16]; Stenotrophomonas maltophilia ATCC 13637, BHI-ych, listed as Lolamycin): >128 µg/mL | MIC ([16]; Stenotrophomonas maltophilia, ATCC13637): > 128 µg/mL | MIC ([17]; ATCC25380): > 128 µg/mL | MIC ([17]; ATCC25839): > 128 µg/mL | MIC ([18]; Bifidobacterium longum ATCC BAA-999, BHI-ych, listed as Lolamycin): >128 µg/mL | MIC ([18]; Bifidobacterium longum, ATCCBAA999): > 128 µg/mL

From US20250051300A1, “GRAM-NEGATIVE SPECIFIC ANTIBIOTICS SPARING EFFECT ON GUT MICROBIOME” (THE BOARD OF TRUSTEES OF THE UNIVERSITY OF ILLINOIS, priority 2021, published 2025)
